Common to all, as to experiment: NCI tumour cell line growth inhibition, 48 h
In test [1] the test system is SNB-19 CNS.
Test [2] deals with 786-0 renal.
In test [3] the test system is CCRF-CEM leukemia.
Test [4] concerns SK-MEL-5 melanoma.
In test [5] the test system is SK-OV-3 ovarian.
Test [6] concerns PC-3 prostate.
Test [7] relates to MCF7 breast.
Test [8] has as its system HS 578T breast.
In test [9] the test system is DU-145 prostate.
Test [10] deals with MDA-MB-231 breast.

For 35 compounds, TGI and GI50 results are on record in PubChem BioAssay (NCI).

Structures are written as SMILES.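 Test compounds were applied to cells in 96-well plates for 48 hours at 5 doses. GI50 is the concentration that inhibits growth by half. The concentration for full growth arrest is given as TGI.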 Some results are limits rather than exact numbers.

With `COc1c(C)n(CCO)ccc1=O`, the TGI in [1], in test [2], in test [3], in test [4] and in test [5] was above 100 µM throughout.

Take `CC1CC(O)C(=O)C(O[C@@H]2C[C@@H]3CC[C@@H]4[C@H](CC[C@]5(C)C(C6=CC(=O)OC6)CC[C@]45O)[C@@]3(C=O)C[C@H]2O)O1` (stereo not given in full): the TGI was 0.0316 µM in test [1]; 0.0341 µM in [2]; 0.0174 µM in [4]; below 0.0424 µM in test [6]; 0.122 µM in test [5]; 0.152 µM in test [7]. The TGI in test [8] came to 0.214 µM; in test [9] it was 0.0237 µM.

For the compound `CCOC(=O)NC(=O)c1cn(C(CC)COC(=O)NCCCCCCNC(=O)OCC(CC)n2cc(C(=O)NC(=O)OCC)c(=O)[nH]c2=O)c(=O)[nH]c1=O` (stereo not given), the TGI in [1], in test [2], in test [3], in test [4] and in test [5] was above 100 µM throughout.

Regarding `COC(=O)/C(=N/O)C(C(=O)C=C(C)C)C(=O)C(=O)Nc1nc2ccc([N+](=O)[O-])cc2s1` (stereo not given), the TGI in test [1] was above 100 µM; in [2] it was above 100 µM; in [3], 74.7 µM; in [4], above 100 µM; in test [5], 63 µM.

As to `CCOCN1COCN(C)C1=O`, the TGI in test [1], in test [2], in [3], in test [4] and in test [5] was above 100 µM each time.

Take `Cc1cc2c(c(C(N)=O)c1C)-c1ccccc1C2=O`: the TGI in [1], in test [2], in [3] and in [5] was above 100 µM in each case.

Consider `O=C(Cc1nc2c3c(ccc2[nH]c1=O)C(=O)c1ccccc1C3=O)C(=O)Nc1ccccc1[N+](=O)[O-]`, for which the TGI in test [1] is 32.9 µM; in [2], 34.4 µM; in test [3] it was 11.6 µM; in test [4], 37.3 µM; in test [5], above 100 µM.

For `Cc1cc(Nc2nc(-c3cn(-c4ccc(Cl)cc4)nn3)nc3ccccc23)n[nH]1`, the GI50 in [10] is 17.7 µM; in test [1] it was above 50 µM; in test [2], 15.1 µM; in test [3] it was 19.5 µM; in [4], 20.8 µM; in test [5], 6.82 µM. The GI50 was 27 µM in [7], above 50 µM in [8] and 10.7 µM in test [9]. Moreover, the TGI in test [10] was above 50 µM; in [1] it was above 50 µM; in test [2], above 50 µM; in [3] it was above 50 µM; in test [4], above 50 µM; in [5], 48.5 µM. Moreover, the TGI in test [7], in test [8] and in test [9] was above 50 µM throughout.

Turning to `COc1cccc(/C=N/[N-]C(=O)c2ccncc2)c1[O-].COc1cccc(/C=N/[N-]C(=O)c2ccncc2)c1[O-].[O]=[U](=[O])([OH2+])[OH2+]`, the GI50 was 9.44 µM in test [1]; 4.37 µM in test [2]; 2.06 µM in [3]; 11.6 µM in test [4]; 12.2 µM in [5]. Besides, the TGI in [1] was above 100 µM; in test [2] it was 48.6 µM; in [3], above 30.7 µM; in test [4] it was above 100 µM; in test [5] it was 73.2 µM.

With `Nc1c(-c2ccccc2-c2c(N)[n+]([O-])c3ccccc3[n+]2[O-])[n+]([O-])c2ccccc2[n+]1[O-]`, the TGI in [1] was above 100 µM; in test [2], above 100 µM; in test [3], above 28.4 µM; in [4], 31 µM; in test [5], above 100 µM.

Take `Cn1c(=O)nc2n(-c3cc(C(F)(F)F)cc(C(F)(F)F)c3)c3ccccc3nc-2c1=O`: the TGI was above 100 µM in test [1], above 100 µM in [2], 54.4 µM in [4] and above 100 µM in test [5].

Turning to `N#CCCN1C/C(=C/c2ccc(Br)cc2)C(=O)/C(=C/c2ccc(Br)cc2)C1`, the GI50 is 2.95 µM in test [10]; 1.59 µM in [1]; 1.38 µM in test [2]; 0.341 µM in test [3]; 1.58 µM in test [4]; 1.51 µM in [6]. For the same compound, the GI50 in [5] is 2.93 µM; in test [7], 0.764 µM. The TGI in [10] was 11.4 µM; in test [1], 3.76 µM; in test [2], 2.84 µM; in [3], above 100 µM; in test [4], 2.93 µM; in test [6], 7.54 µM. Also, the TGI in test [5] turned out to be 8.1 µM; in [7], 10.4 µM.

As to `CCC1CN2CCc3cc(OC)c(OC)cc3C2CC1CC1c2cc(OC)c(OC)cc2CCN1C(=O)C1CCCN1` (stereo not given), the TGI in [1] is above 100 µM; in test [2], 54.8 µM; in test [3], 64.8 µM; in [4], 31.3 µM; in test [5], 98.5 µM.

As for `COC(=O)/C([Se]c1c(C)cc(C)cc1C)=C(/[Se]c1c(C)cc(C)cc1C)C(=O)OC`, the TGI in test [1], in [2], in test [3], in test [4] and in [5] was above 100 µM throughout.

As for `CC(C(=O)c1ccc(Cl)cc1)/C(=N/NC(=O)NN)C(=O)Nc1cccc(C(F)(F)F)c1` (stereo not given), the TGI in [1], in [2], in test [3], in test [4] and in [5] was above 100 µM in each case.

In the case of `Cc1ccccc1C1=[N+]([O-])c2ccc(Cl)cc2C1=O`, the TGI in test [1] was 64.4 µM; in test [2], 32.9 µM; in test [3], 12.5 µM; in [4] it was 26.7 µM; in test [5] it was 52.6 µM.

`O=C(O)c1cccc(COc2ccc([N+](=O)[O-])cc2Cl)c1`: the GI50 in [10] was above 100 µM; in test [1], above 100 µM; in [2], above 100 µM; in test [3] it was above 100 µM; in [4], 40.1 µM; in [6] it was above 100 µM. Also, the GI50 in [5], in test [7] and in test [9] was above 100 µM in each case. In addition, the TGI in [10], in [1], in [2], in test [3], in test [4] and in test [6] was above 100 µM each time. For the same compound, the TGI in test [5], in test [7] and in [9] was above 100 µM throughout.

`CC(C)=C1CCC(CN(C)C)C1=O` (stereo not given): the TGI in [1] was above 100 µM; in [2], 25.9 µM; in test [3] it was 27.7 µM; in test [4], 32.9 µM.

For the compound `CC(C)CCC[C@@H](C)C1CCC2[C@@H]3CC=C4C[C@@H](C(=O)NCCN(C)C)CC[C@]4(C)C3CC[C@@]21C` (stereo not given in full), the TGI in [1] was above 100 µM; in test [2] it was 43.2 µM; in test [3], 73.1 µM; in test [5] it was above 100 µM.

Consider `O=[N+]([O-])c1cccc(C2=NOC(C3CCCCC3)C2)c1` (stereo not given), for which the TGI in test [2], in [3], in test [4] and in test [5] was above 100 µM each time.

In the case of `COc1cc(/C=C2\[C@H]3c4c(c(OC)c(C)c(OC)c4OC)CC(C(=O)N2Cc2ccccc2)N3C)c(OC)c(C)c1OC`, the TGI in test [1] amounted to 73.8 µM; in [2] it was 40.6 µM; in test [3] it was 42.5 µM; in [4], 33 µM; in test [5] it was 92 µM.

For the compound `Cc1[nH]c2ccccc2c1C1Cc2ccccc2N1C(=O)C#Cc1ccc([N+](=O)[O-])cc1` (stereo not given), the TGI in [1], in [2], in test [3] and in test [5] was above 100 µM in each case.

As for `c1coc(-c2c3ccc(=[N+]4CCCCC4)cc-3oc3cc(N4CCCCC4)ccc23)c1`, the GI50 was 0.195 µM in [1]; 0.0455 µM in [2]; 0.0306 µM in test [3]; 0.177 µM in test [4]; 0.0702 µM in test [6]; 0.246 µM in test [5]. In addition, the GI50 in [9] is 0.088 µM. Besides, the TGI was 1.56 µM in test [1]; 0.424 µM in [2]; 1.11 µM in test [3]; 0.471 µM in test [4]; 1.06 µM in [6]; 0.819 µM in [5]. In test [9], the TGI turned out to be 0.475 µM.

As for `Cc1cccc(C2=C/C(=C(\SS/C(C(=O)c3ccc(OCC(=O)O)c(Cl)c3Cl)=C3\C=C(c4cccc(C)c4)SS3)C(=O)c3ccc(OCC(=O)O)c(Cl)c3Cl)SS2)c1`, the TGI in [1] is 43.7 µM; in [2] it was 41.7 µM; in [3], 19.4 µM; in test [4] it was 47.8 µM; in [5], above 100 µM.

As to `O=C(N/C(=C\c1ccc([N+](=O)[O-])cc1)c1nc2ccccc2[nH]1)c1ccccc1`, the TGI in [1], in [2] and in test [4] was above 100 µM each time.

On to `COC(=O)C1C(O)C(C(=O)OC)C(C)N(C)C1C` (stereo not given), for which the TGI in test [10], in [1], in [2], in test [3], in [4] and in test [6] was above 100 µM in each case. The TGI in test [5] and in [7] was above 100 µM in each case.

Take `Cc1ccc(C)c(N2C/C(=N\NC(=O)CC#N)C(c3nc4ccccc4s3)C(=O)C2=O)c1` (stereo not given): the TGI in test [1], in [2], in [3], in [4] and in [5] was above 100 µM in each case.

Turning to `O=c1[nH]cnc(NC2C=C(CO)C(O)C2O)c1[N+](=O)[O-]` (stereo not given), the TGI was above 100 µM in test [1]; above 64.3 µM in test [2]; above 100 µM in test [3]; above 100 µM in test [4]; above 100 µM in test [5].

Turning to `CC(=O)N1CCN(c2ccc(OCC3COC(Cn4ccnc4)(c4ccc(Cl)cc4Cl)O3)cc2)CC1` (stereo not given), the TGI in test [2] is above 100 µM; in test [3] it was above 100 µM; in [4], 24.9 µM; in test [5], above 100 µM.

Turning to `CC1=C(C#N)C(=O)CC(c2ccc(Cl)cc2)N(C)N1` (stereo not given), the TGI in test [1], in test [2], in test [4] and in test [5] was above 100 µM in each case.

As for `CCOC(=O)NC(=O)c1cn(C2CCCCC2)c(=O)[nH]c1=O`, the TGI in [1], in [2], in [3] and in test [5] was above 100 µM in each case.

With `Nc1nc(-c2ccc(Cl)c([N+](=O)[O-])c2)cs1`, the TGI in test [1], in [2], in test [3], in test [4] and in test [5] was above 100 µM each time.

Turning to `CCOP(=O)(OCC)C(C(=O)OC)C(=O)C(=O)Nc1ccc(Cl)cc1Cl` (stereo not given), the TGI in test [1], in test [2], in test [3], in test [4] and in test [5] was above 100 µM in each case.

Take `COC(=O)C(=O)C(C(C)=O)C(=O)NCc1ccc(OC)c(OC)c1` (stereo not given): the TGI in [1], in test [2], in [3], in test [4] and in test [5] was above 100 µM each time.

As for `O=C(CC(=O)C1CCOC1=O)C(=O)Nc1cccc(Cl)c1` (stereo not given), the TGI in test [1], in [2], in [4] and in test [5] was above 100 µM each time.
